Data on twelve molecules can be found in DBAASP.

Values after ≈ are worked out from the molar mass of the structure shown. Values joined by “and” are separate entries in the source; they are usually repeats but may differ in a detail not shown here. Equal entries are not always repeated. A value given as a limit tells only on which side of the number the result lay.

Among the test systems are Escherichia coli B; Bacillus subtilis 168; Pseudomonas aeruginosa; Staphylococcus aureus; Klebsiella pneumoniae; Acinetobacter baumannii.
Assay in all cases: ≥ marks a high value that may be exact or a test limit, other limits are often not marked, values filed in µg/mL are converted to µM
The test system of experiment [1] is Escherichia coli KCTC 1682.
The test system of experiment [2] is Staphylococcus aureus KCTC 1621.
For experiment [3], the system named is Bacillus subtilis KCTC 3068.
For experiment [4], the system named is Salmonella typhimurium KCTC 1926.
Experiment [5] relates to Pseudomonas aeruginosa KCTC 1637.
Experiment [6] concerns Staphylococcus epidermidis KCTC 1917.
For experiment [7], the system named is Staphylococcus aureus ATCC 25923.
Experiment [8] has as its system Escherichia coli ATCC 25922.
The test system of experiment [9] is Klebsiella pneumoniae ATCC 13883.
Experiment [10] has as its system Salmonella enterica subsp. enterica serovar Typhimurium ATCC 14028.

In the case of `CC[C@H](C)[C@H](NC(=O)[C@H](CCCCN)NC(=O)[C@H](CO)NC(=O)[C@H](Cc1c[nH]c2ccccc12)NC(=O)[C@H](CCSC)NC(=O)CN)C(=O)N[C@@H](CC(C)C)C(=O)NCC(=O)N[C@@H](Cc1cnc[nH]1)C(=O)N[C@@H](CC(C)C)C(N)=O` [GMWSKILGHL], the minimum inhibitory concentration (MIC) was ≥ 100 µM against Escherichia coli B, 22.5 µM (≈ 25.7 µg/mL) with Bacillus subtilis 168, > 100 µM in the experiment on Pseudomonas aeruginosa and > 100 µM against Staphylococcus aureus.
On to `CC[C@H](C)[C@H](NC(=O)[C@H](CCCCN)NC(=O)[C@H](CC(C)C)NC(=O)[C@H](CC(C)C)NC(=O)[C@@H](N)CCCCN)C(=O)N[C@@H](Cc1c[nH]c2ccccc12)C(=O)N[C@@H](Cc1c[nH]c2ccccc12)C(=O)N[C@H](C(=O)N[C@@H](CCCCN)C(=O)N[C@H](C(=O)N[C@@H](CC(C)C)C(=O)N[C@@H](CCCCN)C(N)=O)C(C)C)[C@@H](C)CC` [KLLKIWWIKVLK], for which the minimum inhibitory concentration (MIC) in experiment [1] is 7.97 µM (≈ 12.5 µg/mL); in experiment [2] it was 7.97 µM (≈ 12.5 µg/mL); in [3] it was 7.97 µM (≈ 12.5 µg/mL); in [4], 2 µM (≈ 3.13 µg/mL); in [5], 3.99 µM (≈ 6.25 µg/mL); in experiment [6] it was 3.99 µM (≈ 6.25 µg/mL).
In the case of `CC[C@H](C)[C@H](N)C(=O)NCC(=O)N[C@@H](CCCCN)C(=O)N[C@@H](CCCCN)C(=O)N[C@@H](Cc1ccccc1)C(=O)N[C@@H](CCCCN)C(=O)N[C@@H](CCCN=C(N)N)C(=O)N[C@H](C(=O)N[C@H](C(=O)N[C@@H](CCC(N)=O)C(=O)N[C@@H](CCCN=C(N)N)C(=O)N[C@H](C(=O)N[C@@H](CCCCN)C(=O)N[C@@H](CC(=O)O)C(=O)N[C@@H](Cc1ccccc1)C(=O)N[C@@H](CC(C)C)C(=O)N[C@@H](CCCN=C(N)N)C(=O)N[C@@H](CC(N)=O)C(=O)N[C@@H](CC(C)C)C(=O)O)[C@@H](C)CC)C(C)C)[C@@H](C)CC` [IGKKFKRIVQRIKDFLRNL], the MIC was determined as 8 µM (≈ 19 µg/mL) in experiment [1]; 4 µM (≈ 9.49 µg/mL) in experiment [2]; 2 µM (≈ 4.75 µg/mL) in experiment [3]; 2 µM (≈ 4.75 µg/mL) in experiment [4]; 8 µM (≈ 19 µg/mL) in experiment [5]; 2 µM (≈ 4.75 µg/mL) in experiment [6].
As for `CC[C@H](C)[C@H](N)C(=O)NCC(=O)N[C@@H](CCCCN)C(=O)N[C@@H](CC(C)C)C(=O)N[C@@H](Cc1ccccc1)C(=O)N[C@@H](CCCCN)C(=O)N[C@@H](CCCN=C(N)N)C(=O)N[C@H](C(=O)N[C@H](C(=O)N[C@@H](CCC(N)=O)C(=O)N[C@@H](CCCN=C(N)N)C(=O)N[C@H](C(=O)N[C@@H](CCCCN)C(=O)N[C@@H](CCCCN)C(=O)N[C@@H](Cc1ccccc1)C(=O)N[C@@H](CC(C)C)C(=O)N[C@@H](CCCN=C(N)N)C(=O)N[C@@H](CC(N)=O)C(=O)N[C@@H](CC(C)C)C(=O)O)[C@@H](C)CC)C(C)C)[C@@H](C)CC` [IGKLFKRIVQRIKKFLRNL], the MIC in experiment [1] worked out at 8 µM (≈ 19 µg/mL); in experiment [2] it was 8 µM (≈ 19 µg/mL); in [3], 4 µM (≈ 9.48 µg/mL); in [4] it was 4 µM (≈ 9.48 µg/mL); in [5], 8 µM (≈ 19 µg/mL); in experiment [6], 4 µM (≈ 9.48 µg/mL).
As to `CC[C@H](C)[C@H](N)C(=O)NCC(=O)N[C@@H](CCCCN)C(=O)N[C@@H](CCCCN)C(=O)N[C@@H](Cc1ccccc1)C(=O)N[C@@H](CCCCN)C(=O)N[C@@H](CCCN=C(N)N)C(=O)N[C@H](C(=O)N[C@H](C(=O)N[C@@H](CCC(N)=O)C(=O)N[C@@H](CCCN=C(N)N)C(=O)N[C@H](C(=O)N[C@@H](CCCCN)C(=O)N[C@@H](CCCCN)C(=O)N[C@@H](Cc1ccccc1)C(=O)N[C@@H](CC(C)C)C(=O)N[C@@H](CCCN=C(N)N)C(=O)N[C@@H](CC(N)=O)C(=O)N[C@@H](CC(C)C)C(=O)O)[C@@H](C)CC)C(C)C)[C@@H](C)CC` [IGKKFKRIVQRIKKFLRNL], the minimal inhibitory concentration (MIC) in [1] was 8 µM (≈ 19.1 µg/mL); in experiment [2], 4 µM (≈ 9.54 µg/mL); in experiment [3] it was 2 µM (≈ 4.77 µg/mL); in [4], 8 µM (≈ 19.1 µg/mL); in experiment [5], 8 µM (≈ 19.1 µg/mL); in experiment [6], 2 µM (≈ 4.77 µg/mL).
Take `CC[C@H](C)[C@H](NC(=O)[C@H](CO)NC(=O)[C@H](CC(C)C)NC(=O)[C@H](Cc1ccccc1)NC(=O)CN)C(=O)N[C@@H](CC(C)C)C(=O)N[C@@H](CCCCN)C(=O)N[C@@H](CCCCN)C(=O)N[C@H](C(=O)N[C@@H](CC(C)C)C(=O)N[C@@H](CCCCN)C(=O)N[C@@H](CCCCN)C(=O)N[C@H](C(=O)N[C@@H](CCSC)C(=O)N[C@@H](C)C(=O)N[C@@H](Cc1cnc[nH]1)C(=O)N[C@@H](CCSC)C(=O)N[C@@H](CCCCN)C(N)=O)C(C)C)C(C)C` [GFLSILKKVLKKVMAHMK]: the MIC with Escherichia coli B was 1.8 µM (≈ 3.73 µg/mL); in the experiment with Bacillus subtilis 168 it was 1.4 µM (≈ 2.9 µg/mL); in the experiment on Pseudomonas aeruginosa it was 25.3 µM (≈ 52.4 µg/mL); against Staphylococcus aureus, 13.8 µM (≈ 28.6 µg/mL).
With `CSCC[C@H](NC(=O)[C@H](Cc1cnc[nH]1)NC(=O)[C@H](C)NC(=O)[C@H](CCSC)NC(=O)[C@@H](NC(=O)[C@@H](N)CCCCN)C(C)C)C(=O)N[C@@H](CCCCN)C(N)=O` [KVMAHMK], the MIC against Escherichia coli B and with Bacillus subtilis 168 was ≥ 100 µM throughout.
On to `CC[C@H](C)[C@H](NC(=O)[C@H](C)NC(=O)[C@H](CCCN=C(N)N)NC(=O)[C@H](Cc1ccccc1)NC(=O)[C@@H](NC(=O)[C@H](Cc1cnc[nH]1)NC(=O)[C@H](Cc1cnc[nH]1)NC(=O)[C@H](Cc1ccccc1)NC(=O)[C@@H](N)Cc1ccccc1)[C@@H](C)CC)C(=O)N[C@H](C(=O)N[C@@H](Cc1cnc[nH]1)C(=O)N[C@H](C(=O)NCC(=O)N[C@@H](CCCCN)C(=O)N[C@H](C(=O)N[C@H](C(=O)N[C@@H](Cc1cnc[nH]1)C(=O)N[C@@H](CCCN=C(N)N)C(=O)N[C@@H](CC(C)C)C(=O)N[C@H](C(=O)N[C@H](C(=O)NCC(=O)O)[C@@H](C)O)C(C)C)[C@@H](C)CC)[C@@H](C)O)C(C)C)C(C)C` [FFHHIFRAIVHVGKTIHRLVTG], for which the minimum inhibitory concentration (MIC) in [1] worked out at 2 µM (≈ 5.17 µg/mL); in [2], 2 µM (≈ 5.17 µg/mL); in [3], 2 µM (≈ 5.17 µg/mL); in [4] it was 1 µM (≈ 2.59 µg/mL); in experiment [5] it was 4 µM (≈ 10.3 µg/mL); in experiment [6] it was 1 µM (≈ 2.59 µg/mL).
On to `CC(C)C[C@H](NC(=O)[C@H](C)NC(=O)[C@H](CCCN=C(N)N)NC(=O)[C@H](C)NC(=O)[C@H](Cc1c[nH]c2ccccc12)NC(=O)CNC(=O)[C@H](CCCN=C(N)N)NC(=O)[C@@H](N)CCCN=C(N)N)C(=O)N[C@@H](C)C(=O)N[C@@H](Cc1ccccc1)C(=O)N[C@@H](C)C(=O)N[C@@H](Cc1ccccc1)C(=O)NCC(=O)N[C@@H](CCCN=C(N)N)C(N)=O` [RRGWARALAFAFGR], for which the MIC in experiment [7] was > 30 µM; against Klebsiella pneumoniae it was 1.9 µM (≈ 3.1 µg/mL); with Acinetobacter baumannii, 1.8 µM (≈ 2.94 µg/mL); in [8], 6.6 µM and 15.5 µM; in [9] it was 14.8 µM and 30 µM.
`CC(C)C[C@H](NC(=O)[C@H](Cc1ccccc1)NC(=O)[C@H](CCCCN)NC(=O)[C@H](Cc1c[nH]c2ccccc12)NC(=O)[C@H](Cc1c[nH]c2ccccc12)NC(=O)[C@H](Cc1c[nH]c2ccccc12)NC(=O)[C@H](CCCCN)NC(=O)[C@H](Cc1ccccc1)NC(=O)[C@H](CCCN=C(N)N)NC(=O)[C@H](CCCN=C(N)N)NC(=O)[C@@H](N)C(C)C)C(=O)N[C@@H](CCCN=C(N)N)C(=O)N[C@@H](CCCN=C(N)N)C(N)=O` [VRRFKWWWKFLRR]: the MIC in [1] was 2 µM (≈ 3.93 µg/mL); in [2], 1 µM (≈ 1.96 µg/mL); in experiment [3], 0.5 µM (≈ 0.982 µg/mL); in experiment [4], 2 µM (≈ 3.93 µg/mL); in experiment [5] it was 4 µM (≈ 7.85 µg/mL); in experiment [6] it was 0.5 µM (≈ 0.982 µg/mL).
As to `CC[C@H](C)[C@H](N)C(=O)N[C@@H](CC(C)C)C(=O)N1CCC[C@H]1C(=O)N[C@@H](Cc1c[nH]c2ccccc12)C(=O)N[C@@H](CCCCN)C(=O)N[C@@H](Cc1c[nH]c2ccccc12)C(=O)N[C@@H](CCCCN)C(=O)N[C@@H](Cc1c[nH]c2ccccc12)C(=O)N[C@@H](Cc1c[nH]c2ccccc12)C(=O)N[C@@H](CCCCN)C(=O)N[C@@H](Cc1c[nH]c2ccccc12)C(=O)N[C@@H](CCCN=C(N)N)C(=O)N[C@@H](CCCN=C(N)N)C(N)=O` [ILPWKWKWWKWRR], the MIC in experiment [1] is 5.08 µM (≈ 10 µg/mL); in experiment [2] it was 2.54 µM (≈ 5 µg/mL); in experiment [3] it was 2.54 µM (≈ 5 µg/mL); in [4] it was 5.08 µM (≈ 10 µg/mL); in [5], 5.08 µM (≈ 10 µg/mL); in [6], 5.08 µM (≈ 10 µg/mL).
Take `CC(C)C[C@H](NC(=O)[C@H](CCCN=C(N)N)NC(=O)[C@H](CCCN=C(N)N)NC(=O)[C@H](C)NC(=O)[C@H](Cc1c[nH]c2ccccc12)NC(=O)CNC(=O)[C@H](CCCN=C(N)N)NC(=O)[C@@H](N)CCCN=C(N)N)C(=O)N[C@@H](Cc1ccccc1)C(=O)N[C@@H](C)C(=O)N[C@@H](C)C(=O)N[C@@H](Cc1ccccc1)C(=O)NCC(=O)N[C@@H](CCCN=C(N)N)C(=O)N[C@@H](CCCN=C(N)N)C(N)=O` [RRGWARRLFAAFGRR]: the MIC is > 30 µM in experiment [7]; 1.8 µM (≈ 3.38 µg/mL) with Klebsiella pneumoniae; 4.8 µM (≈ 9 µg/mL) with Acinetobacter baumannii; 11.5 µM and 30 µM in [8]; 10.6 µM and 30 µM in [10]; 30 µM (≈ 56.3 µg/mL) in experiment [9].

Broadly, the MIC is the least concentration at which growth counts as inhibited. Lower therefore signals inhibition by little substance.
